The text below walks through data of patent US8492148B2, “Method for amplification of endothelial progenitor cell in vitro” (Foundation for Biomedical Research & Innovation, priority 2005, dated 2013).

“Also recorded” adds a separate entry of the source.

The experiment has as its system cord blood CD133 positive cell-derived EPC. The experiment can be described thus: EPC colony assay (methylcellulose medium containing physiologically active substances). Format: cell-based. The following applies: 1 μM TGF-β inhibitor in serum-free culture medium (compared with 0, 0.1, 10 μM); cultivation for 2 weeks. As to the method: Using the serum-free culture media of the present invention containing various concentrations of TGF-β inhibitor as prepared in Example 1, cord blood CD133 positive cell-derived EPC was expanded in vitro and differentiated. The degree of expansion was evaluated by counting the number of colonies, and the degree of differentiation was evaluated by separately counting the number of colonies of blood lineage cell and that of EPC. For EPC colony, moreover, large cell colonies and small cell colonies were separately counted, as well as the total number of EPC colonies was counted.
The cord blood-derived mononuclear cells were collected and cultivated in a serum-free culture medium in the same manner as in Example 1. […]
The number of colonies confirmed to be the EPC colonies was counted. The total number of colonies, the number of small cell colonies and the number of large cell colonies were separately counted.
For the blood lineage colony, the number of colonies of four kinds of colonies: erythroid burst-forming unit colony (BFU-E), granulocyte-macrophage lineage colony-forming unit colony (CFU-GM), macrophage colony-forming unit colony (CFU-M) and mixed colony (CFU-GEM) was added, and the appearance frequency thereof was determined over time. […]

For the compound `NC(=O)c1ccc(-c2nc(-c3ccc4c(c3)OCO4)c(-c3ccccn3)[nH]2)cc1` [TGF-β inhibitor, 4-(5-benzo[1.3]dioxol-5-yl-4-pyridin-2-yl-1H-imidazol-2-yl)-benzamide], the “number of EPC colonies per Dish and total number of EPC colonies” value is “at maximum; also recorded: largest number of EPC colonies”.
